Measured values reported in ChEMBL document CHEMBL5727468, “Piperidine compounds as PCSK9 inhibitors” (2019).

Target: Proprotein convertase subtilisin/kexin type 9 (Homo sapiens, UniProt Q8NBP7)
Assay: In Vitro Screening Experiment: 1. […] Data Analysis:Date was analyzed with Prismsoftware (nonlinear regression (Sigmoidal dose-response-variable slope)Inhibition ratio %=100*(Sample reading−LC reading)/(HC reading−LC reading).

Sequence of Proprotein convertase subtilisin/kexin type 9 (Q8NBP7 31-152 limits assumed): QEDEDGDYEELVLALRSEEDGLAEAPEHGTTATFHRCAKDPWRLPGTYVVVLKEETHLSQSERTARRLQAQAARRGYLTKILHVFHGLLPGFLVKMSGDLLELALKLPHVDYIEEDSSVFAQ
Sequence of Proprotein convertase subtilisin/kexin type 9 (Q8NBP7 153-692 limits assumed): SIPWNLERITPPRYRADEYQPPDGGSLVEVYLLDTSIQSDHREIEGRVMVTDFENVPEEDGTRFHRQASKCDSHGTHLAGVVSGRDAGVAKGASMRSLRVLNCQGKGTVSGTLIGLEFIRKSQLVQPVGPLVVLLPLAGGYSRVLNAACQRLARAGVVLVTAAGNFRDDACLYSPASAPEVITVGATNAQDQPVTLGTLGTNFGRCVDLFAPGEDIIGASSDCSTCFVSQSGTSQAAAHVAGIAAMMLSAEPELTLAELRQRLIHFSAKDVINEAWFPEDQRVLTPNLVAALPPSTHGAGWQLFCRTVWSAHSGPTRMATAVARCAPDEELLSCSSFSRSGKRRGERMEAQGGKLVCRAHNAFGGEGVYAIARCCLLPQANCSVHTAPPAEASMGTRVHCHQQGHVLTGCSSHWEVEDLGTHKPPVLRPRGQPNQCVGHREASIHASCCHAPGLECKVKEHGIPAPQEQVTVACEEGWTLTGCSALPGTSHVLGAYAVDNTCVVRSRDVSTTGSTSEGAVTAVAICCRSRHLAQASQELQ

Molecule `CCc1cccnc1N(C(=O)c1ccc(C2=NOC(C)(C)C2=O)cc1)[C@@H]1CCCNC1` has an IC50 of less than 10 µM.

`Cc1cccnc1N(C(=O)c1ccc(C2=NOC(C)(C)C2(C)O)cc1)[C@@H]1CCCNC1` (some centres not stated) was tested, and the IC50 was less than 10 µM.

For `CC1(C)ON=C(c2ccc(C(=O)N(c3nccc4ccccc34)[C@@H]3CCCNC3)cc2)C1=O`, the IC50 was less than 10 µM.

For `CC1(C)ON=C(c2ccc(C(=O)N(c3ncccc3C3CC3)[C@@H]3CCCNC3)cc2)C1=O`, the IC50 was less than 10 µM.

With `COC1C(c2ccc(C(=O)N(c3ncccc3Cl)[C@@H]3CCCNC3)cc2)=NOC1(C)C` (some centres not stated) the IC50 was less than 10 µM.

For `Cc1cccnc1N(C(=O)c1ccc(C2=NOC(C)(C)C2=O)cn1)[C@@H]1CCCNC1`, the IC50 was less than 10 µM.

Molecule `COCCOC1C(c2ccc(C(=O)N(c3ncccc3C)[C@@H]3CCCNC3)cc2)=NOC1(C)C` (some centres not stated) has an IC50 of less than 10 µM.
